The values that follow come from US11987586B1 (TAKEDA PHARMACEUTICAL COMPANY LIMITED, priority 2022, dated 2024).

In this assay the target is T1, human OX2 receptor (Homo sapiens, UniProt O43614).
T1 construct: expressed in transfected cells
T1 sequence (O43614 1-444): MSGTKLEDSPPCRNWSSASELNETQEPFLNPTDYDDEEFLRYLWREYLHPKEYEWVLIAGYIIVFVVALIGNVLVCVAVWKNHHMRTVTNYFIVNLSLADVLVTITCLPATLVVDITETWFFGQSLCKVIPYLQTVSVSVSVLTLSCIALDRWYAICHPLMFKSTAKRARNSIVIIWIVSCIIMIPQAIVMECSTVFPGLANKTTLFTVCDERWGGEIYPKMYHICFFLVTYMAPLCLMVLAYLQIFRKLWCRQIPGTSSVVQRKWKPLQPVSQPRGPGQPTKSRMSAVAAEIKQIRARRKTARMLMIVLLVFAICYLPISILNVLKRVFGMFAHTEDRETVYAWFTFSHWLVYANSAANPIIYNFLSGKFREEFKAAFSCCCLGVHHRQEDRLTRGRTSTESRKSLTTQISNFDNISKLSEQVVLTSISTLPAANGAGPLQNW
In words: Measurement of orexin type 2 receptor agonist activity (calcium fluorescence, Fluo-4, FDSS). In kind it is cell-based. The note with it: 3 uM test compound; CHO cells expressing human OX2 receptor; DMSO = 0%, 10 nM orexin A (human) = 100%. The procedure, abridged: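 Agonist activity (%) was normalised to the response to 10 nM final human orexin A (100%) and to the DMSO vehicle (0%). The response was measured as the Fluo-4 calcium signal, read kinetically over 1 min 40 s after compound addition to Fluo-4/probenecid-loaded stable CHO-K1 clones expressing human OX2 (aa 1-444).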
Turning to `COCc1cc(-c2c(F)cc(F)cc2F)c2c(N3CC[C@H]4N(C[C@@H](NS(C)(=O)=O)C4(F)F)C3=O)noc2c1` [Example 210, N-{(4aR,6R)-5,5-difluoro-2-[6-(methoxymethyl)-4-(2,4,6-trifluorophenyl)-1,2-benzoxazol-3-yl]-1-oxooctahydropyrrolo[1,2-c]pyrimidin-6-yl}methanesulfonamide], the “OX2R agonist activity (3 uM, %)” value amounted to 94%.
Regarding `CS(=O)(=O)N[C@@H]1CN2C(=O)N(c3noc4nccc(-c5c(F)cc(F)cc5F)c34)CC[C@@H]2C1(F)F` [Example 237, N-{(4aR,6R)-5,5-difluoro-1-oxo-2-[4-(2,4,6-trifluorophenyl)[1,2]oxazolo[5,4-b]pyridin-3-yl]octahydropyrrolo[1,2-c]pyrimidin-6-yl}methanesulfonamide], the “OX2R agonist activity (3 uM, %)” value was 110%.
Turning to `CS(=O)(=O)N[C@@H]1CN2C(=O)N(c3noc4cc(F)cc(-c5c(F)cccc5F)c34)C[C@@H]2C1(F)F` [Example 72, N-{(6R,7aR)-2-[4-(2,6-Difluorophenyl)-6-fluoro-1,2-benzoxazol-3-yl]-7,7-difluoro-3-oxohexahydro-1H-pyrrolo[1,2-c]imidazol-6-yl}methanesulfonamide], the “OX2R agonist activity (3 uM, %)” value was 98%.
With `CCS(=O)(=O)N[C@@H]1CN2C(=O)N(c3noc4cc(Cl)cc(-c5c(F)cc(F)cc5F)c34)C[C@@H]2C1(F)F` [Example 9, N-{(6R,7aR)-2-[6-chloro-4-(2,4,6-trifluorophenyl)-1,2-benzoxazol-3-yl]-7,7-difluoro-3-oxohexahydro-1H-pyrrolo[1,2-c]imidazol-6-yl}ethanesulfonamide] the figure was 92%; with `CCS(=O)(=O)N[C@@H]1Cn2c(cn(-c3noc4cc(C)cc(-c5c(F)cc(F)cc5F)c34)c2=O)C1(F)F` [Example 155, N-{(6R)-7,7-difluoro-2-[6-methyl-4-(2,4,6-trifluorophenyl)-1,2-benzoxazol-3-yl]-3-oxo-2,5,6,7-tetrahydro-3H-pyrrolo[1,2-c]imidazol-6-yl}ethanesulfonamide], 96%.
With `O=C1N(c2noc3cc(F)cc(-c4c(F)cc(F)cc4F)c23)CC[C@H]2N1C[C@@H](NS(=O)(=O)C1CC1)C2(F)F` [Example 281, N-{(4aR,6R)-5,5-difluoro-2-[6-fluoro-4-(2,4,6-trifluorophenyl)-1,2-benzoxazol-3-yl]-1-oxooctahydropyrrolo[1,2-c]pyrimidin-6-yl}cyclopropanesulfonamide] the figure was 107%.
As to `CCS(=O)(=O)N[C@@H]1CN2C(=O)N(c3noc4cccc(-c5c(F)cccc5F)c34)C[C@@H]2C1(F)F` [Example 33, N-{(6R,7aR)-2-[4-(2,6-Difluorophenyl)-1,2-benzoxazol-3-yl]-7,7-difluoro-3-oxohexahydro-1H-pyrrolo[1,2-c]imidazol-6-yl}ethanesulfonamide], the “OX2R agonist activity (3 uM, %)” value is given as 108%.
With `CCS(=O)(=O)N[C@@H]1CN2C(=O)N(c3noc4cc(C(F)F)cc(-c5c(F)cc(F)cc5F)c34)C[C@@H]2C1(F)F` [Example 298, N-{(6R,7aR)-2-[6-(difluoromethyl)-4-(2,4,6-trifluorophenyl)-1,2-benzoxazol-3-yl]-7,7-difluoro-3-oxohexahydro-1H-pyrrolo[1,2-c]imidazol-6-yl}ethanesulfonamide] the figure was 105%; with `CS(=O)(=O)N[C@@H]1Cn2c(cn(-c3noc4cc(F)cc(-c5c(F)cccc5F)c34)c2=O)C1(F)F` [Example 46, N-{(6R)-2-[4-(2,6-difluorophenyl)-6-fluoro-1,2-benzoxazol-3-yl]-7,7-difluoro-3-oxo-2,5,6,7-tetrahydro-3H-pyrrolo[1,2-c]imidazol-6-yl}methanesulfonamide], 102%; with `O=C1N(c2noc3ccc(F)c(-c4c(F)cccc4F)c23)CC[C@H]2N1C[C@@H](NS(=O)(=O)C1CC1)C2(F)F` [Example 280, N-{(4aR,6R)-2-[4-(2,6-difluorophenyl)-5-fluoro-1,2-benzoxazol-3-yl]-5,5-difluoro-1-oxooctahydropyrrolo[1,2-c]pyrimidin-6-yl}cyclopropanesulfonamide], 101%.
With `CS(=O)(=O)N[C@@H]1CN2C(=O)N(c3noc4cccc(-c5ncc(F)cc5F)c34)CC[C@@H]2C1(F)F` [Example 320, N-{(4aR,6R)-2-[4-(3,5-difluoropyridin-2-yl)-1,2-benzoxazol-3-yl]-5,5-difluoro-1-oxooctahydropyrrolo[1,2-c]pyrimidin-6-yl}methanesulfonamide] the figure was 104%; with `CCS(=O)(=O)N[C@@H]1CN2C(=O)N(c3noc4cc(F)c(F)c(-c5c(F)cc(F)cc5F)c34)CC[C@@H]2C1(F)F` [Example 304, N-{(4aR,6R)-2-[5,6-difluoro-4-(2,4,6-trifluorophenyl)-1,2-benzoxazol-3-yl]-5,5-difluoro-1-oxooctahydropyrrolo[1,2-c]pyrimidin-6-yl}ethanesulfonamide], 117%; with `Cc1cc2onc(-n3cc4n(c3=O)C[C@@H](NS(C)(=O)=O)C4(F)F)c2c(-c2c(F)cc(F)cc2F)c1F` [Example 184, N-{(6R)-7,7-difluoro-2-[5-fluoro-6-methyl-4-(2,4,6-trifluorophenyl)-1,2-benzoxazol-3-yl]-3-oxo-2,5,6,7-tetrahydro-3H-pyrrolo[1,2-c]imidazol-6-yl}methanesulfonamide], 101%.
Consider `CS(=O)(=O)N[C@@H]1CN2C(=O)N(c3noc4cc(Br)cc(-c5c(F)cccc5F)c34)CC[C@@H]2C1(F)F` [Example 224, N-{(4aR,6R)-2-[6-bromo-4-(2,6-difluorophenyl)-1,2-benzoxazol-3-yl]-5,5-difluoro-1-oxooctahydropyrrolo[1,2-c]pyrimidin-6-yl}methanesulfonamide], for which the “OX2R agonist activity (3 uM, %)” value was determined as 109%.
Consider `CCS(=O)(=O)N[C@H]1C[C@H]2CCN(c3noc4cccc(-c5c(F)cc(F)cc5F)c34)C(=O)N2C1` [Example 205, N-{(4aR,6S)-1-oxo-2-[4-(2,4,6-trifluorophenyl)-1,2-benzoxazol-3-yl]octahydropyrrolo[1,2-c]pyrimidin-6-yl}ethanesulfonamide], for which the “OX2R agonist activity (3 uM, %)” value came out at 107%.
`CCS(=O)(=O)N[C@@H]1CN2C(=O)N(c3noc4cc(F)c(F)c(-c5c(F)cccc5F)c34)C[C@@H]2C1(F)F` [Example 168, N-{(6R,7aR)-2-[4-(2,6-difluorophenyl)-5,6-difluoro-1,2-benzoxazol-3-yl]-7,7-difluoro-3-oxohexahydro-1H-pyrrolo[1,2-c]imidazol-6-yl}ethanesulfonamide]: the “OX2R agonist activity (3 uM, %)” value is 102%.
With `CNS(=O)(=O)N[C@@H]1Cn2c(cn(-c3noc4cc(F)cc(-c5c(F)cc(F)cc5F)c34)c2=O)C1(F)F` [Example 139, N-{(6R)-7,7-difluoro-2-[6-fluoro-4-(2,4,6-trifluorophenyl)-1,2-benzoxazol-3-yl]-3-oxo-2,5,6,7-tetrahydro-3H-pyrrolo[1,2-c]imidazol-6-yl}-N′-methylsulfuric diamide] the figure was 101%.
`CCS(=O)(=O)N[C@@H]1Cn2c(cn(-c3noc4cc(C)nc(-c5c(F)cc(F)cc5F)c34)c2=O)C1(F)F` [Example 198, N-{(6R)-7,7-difluoro-2-[6-methyl-4-(2,4,6-trifluorophenyl)[1,2]oxazolo[4,5-c]pyridin-3-yl]-3-oxo-2,5,6,7-tetrahydro-3H-pyrrolo[1,2-c]imidazol-6-yl}ethanesulfonamide]: the “OX2R agonist activity (3 uM, %)” value is listed as 112%.
As to `CCS(=O)(=O)N[C@@H]1CN2C(=O)N(c3noc4cccc(-c5ccccc5F)c34)CC[C@@H]2C1(F)F` [Example 334, N-{(4aR,6R)-5,5-difluoro-2-[4-(2-fluorophenyl)-1,2-benzoxazol-3-yl]-1-oxooctahydropyrrolo[1,2-c]pyrimidin-6-yl}ethanesulfonamide], the “OX2R agonist activity (3 uM, %)” value worked out at 111%.
Take `CCS(=O)(=O)N[C@@H]1CN2C(=O)N(c3noc4cc(COC)c(F)c(-c5c(F)cccc5F)c34)CC[C@@H]2C1(F)F` [Example 221, N-{(4aR,6R)-2-[4-(2,6-difluorophenyl)-5-fluoro-6-(methoxymethyl)-1,2-benzoxazol-3-yl]-5,5-difluoro-1-oxooctahydropyrrolo[1,2-c]pyrimidin-6-yl}ethanesulfonamide]: the “OX2R agonist activity (3 uM, %)” value was determined as 104%.
For `CCS(=O)(=O)N[C@@H]1Cn2c(cn(-c3noc4cccc(-c5c(F)cccc5F)c34)c2=O)C1(C)C` [Example 70, N-{(6S)-2-[4-(2,6-difluorophenyl)-1,2-benzoxazol-3-yl]-7,7-dimethyl-3-oxo-2,5,6,7-tetrahydro-3H-pyrrolo[1,2-c]imidazol-6-yl}ethanesulfonamide], the “OX2R agonist activity (3 uM, %)” value is given as 105%.
For `CCS(=O)(=O)N[C@@H]1Cn2c(cn(-c3noc4nc(C)cc(-c5c(F)cccc5F)c34)c2=O)C1(F)F` [Example 112, N-{(6R)-2-[4-(2,6-difluorophenyl)-6-methyl[1,2]oxazolo[5,4-b]pyridin-3-yl]-7,7-difluoro-3-oxo-2,5,6,7-tetrahydro-3H-pyrrolo[1,2-c]imidazol-6-yl}ethanesulfonamide], the “OX2R agonist activity (3 uM, %)” value was determined as 99%.
